According to patent US20110136853A1, “LIGAND WITH A BROAD SPECTRUM OF PHARMACOLOGICAL ACTIVITY, A PHARMACEUTICAL COMPOSITION, A MEDICINAL AGENT AND A METHOD OF TREATMENT” (priority 2008, published 2011):
Marks after values point to notes of the source that are not given here.

Tests used:
adrenergic α2A = molecular target: T1, adrenergic α2A (Homo sapiens, UniProt P08913); experiment: radioligand displacement, adrenergic α2A; assay type: binding; details: human being, ligand 10 μM, duplicates
T1 construct: MDS Pharma Services (contract laboratory)
Procedure: (§1) The firm MDS Pharma Services [http://www.mdsps.com] carried out this test in duplicates at ligand concentration 10 μM by the displacement of the corresponding radioactive-labeled ligand. Test results, expressed in percent of ligand replacement (%), represented in Table 2 and in FIG. 1.

serotonin 5-HT6 = molecular target: T2, serotonin 5-HT6 (Homo sapiens, UniProt P50406); experiment: radioligand displacement, serotonin 5-HT6; assay type: binding; details: serotonin 5-HT6, human being; ligand 10 μM, duplicates
T2 construct: MDS Pharma Services (contract laboratory)
Procedure: as §1

sodium channel, site 2 = experiment: radioligand displacement, sodium channel site 2; assay type: binding; details: site 2, rat, ligand 10 μM, duplicates
Procedure: as §1

histamine H2 = molecular target: T3, histamine H2 (Homo sapiens, UniProt P25021); experiment: radioligand displacement, histamine H2; assay type: binding; details: histamine H2, human being; ligand 10 μM, duplicates
T3 construct: MDS Pharma Services (contract laboratory)
Procedure: as §1

histamine H1 = molecular target: T4, histamine H1 (Homo sapiens, UniProt P35367); experiment: radioligand displacement, histamine H1; assay type: binding; details: histamine H1, human being; ligand 10 μM, duplicates
T4 construct: MDS Pharma Services (contract laboratory)
Procedure: as §1

serotonin 5-HT7 = molecular target: T5, serotonin 5-HT7 (Homo sapiens, UniProt P34969); experiment: radioligand displacement, serotonin 5-HT7; assay type: binding; details: serotonin 5-HT7, human being; ligand 10 μM, duplicates
T5 construct: MDS Pharma Services (contract laboratory)
Procedure: as §1

sigma σ2 = molecular target: T6, sigma σ2 (Rattus norvegicus, UniProt Q5U3Y7); experiment: radioligand displacement, sigma σ2; assay type: binding; details: ligand 10 μM, duplicates
T6 construct: MDS Pharma Services (contract laboratory)
Procedure: as §1

sigma σ1 = molecular target: T7, sigma σ1 (Homo sapiens, UniProt Q99720); experiment: radioligand displacement, sigma σ1; assay type: binding; details: sigma σ1, human being; ligand 10 μM, duplicates
T7 construct: MDS Pharma Services (contract laboratory)
Procedure: as §1

adrenergic α1B = molecular target: T8, adrenergic α1B (Rattus norvegicus, UniProt P15823); experiment: radioligand displacement, adrenergic α1B; assay type: binding; details: ligand 10 μM, duplicates
T8 construct: MDS Pharma Services (contract laboratory)
Procedure: as §1

dopamine D3 = molecular target: T9, dopamine D3 (Homo sapiens, UniProt P35462); experiment: radioligand displacement, dopamine D3; assay type: binding; details: dopamine D3, human being; ligand 10 μM, duplicates
T9 construct: MDS Pharma Services (contract laboratory)
Procedure: as §1

dopamine D2S = molecular target: T10, dopamine D2S (Homo sapiens, UniProt P14416); experiment: radioligand displacement, dopamine D2S; assay type: binding; details: human being, ligand 10 μM, duplicates
T10 construct: MDS Pharma Services (contract laboratory)
Procedure: as §1

serotonin 5-HT2B = molecular target: T11, serotonin 5-HT2B (Homo sapiens, UniProt P41595); experiment: radioligand displacement, serotonin 5-HT2B; assay type: binding; details: human being, ligand 10 μM, duplicates
T11 construct: MDS Pharma Services (contract laboratory)
Procedure: as §1

serotonin 5-HT1B = molecular target: T12, serotonin 5-HT1B (Homo sapiens, UniProt P28222); experiment: radioligand displacement, serotonin 5-HT1B; assay type: binding; details: human being, ligand 10 μM, duplicates
T12 construct: MDS Pharma Services (contract laboratory)
Procedure: as §1

dopamine D2L = molecular target: T13, dopamine D2L (Homo sapiens, UniProt P14416); experiment: radioligand displacement, dopamine D2L; assay type: binding; details: human being, ligand 10 μM, duplicates
T13 construct: MDS Pharma Services (contract laboratory)
Procedure: as §1

male mice of BALB/c line = experiment: Mice Behavior in the Elevated Plus Maze; assay type: in vivo; details: 5 minutes, FIG. 8-10
Procedure: The length of maze arms makes 30 cm, the width 5 cm, height of walls 15 cm. Two opposite arms are closed from sides and end walls with prasparent walls, the two others are lighted and opened. A mouse was placed in the maze center and during 5 minutes the number of opened and closed arm entries and the time spent by the animals in opened and closed arms were registered. On this evidence indexes of opened arms preference were calculated as a ratio of the number of opened arm entries and also duration of their stay in the opened arms to the total number of entries into all of arms and duration of stay in them. Being in normal state animals avoid opened arms (index of preference makes 0.2-0.3). Compounds with anxiolytic activity (tranquilizing activity) run this value up to 0.5-0.6 and more, and also decrease the number of defecations without changing overall physical activity (general number of arm entries).

[1] = system: calcium channel of L-type, benzothiazepine; experiment: radioligand displacement, L-type calcium channel (benzothiazepine); assay type: binding; details: rat, ligand 10 μM, duplicates
Procedure: as §1

[2] = molecular target: T14, dopamine transporter (DAT) (Homo sapiens, UniProt Q01959); experiment: radioligand displacement, dopamine transporter; assay type: binding; details: human being, ligand 10 μM, duplicates
T14 construct: MDS Pharma Services (contract laboratory)
Procedure: as §1

serotonin 5-HT2C = molecular target: T15, serotonin 5-HT2C (Homo sapiens, UniProt P28335); experiment: radioligand displacement, serotonin 5-HT2C; assay type: binding; details: human being, ligand 10 μM, duplicates
T15 construct: MDS Pharma Services (contract laboratory)
Procedure: as §1

adrenergic β2 = molecular target: T16, adrenergic β2 (Homo sapiens, UniProt P07550); experiment: radioligand displacement, adrenergic β2; assay type: binding; details: adrenergic β2, human being; ligand 10 μM, duplicates
T16 construct: MDS Pharma Services (contract laboratory)
Procedure: as §1

dopamine D1 = molecular target: T17, dopamine D1 (Homo sapiens, UniProt P21728); experiment: radioligand displacement, dopamine D1; assay type: binding; details: dopamine D1, human being; ligand 10 μM, duplicates
T17 construct: MDS Pharma Services (contract laboratory)
Procedure: as §1

adrenergic α1A = molecular target: T18, adrenergic α1A (Rattus norvegicus, UniProt P43140); experiment: radioligand displacement, adrenergic α1A; assay type: binding; details: ligand 10 μM, duplicates
T18 construct: MDS Pharma Services (contract laboratory)
Procedure: as §1

[3] = molecular target: T19, norepinephrine transporter (NET) (Homo sapiens, UniProt P23975); experiment: radioligand displacement, norepinephrine transporter; assay type: binding; details: human being, ligand 10 μM, duplicates
T19 construct: MDS Pharma Services (contract laboratory)
Procedure: as §1

T17 sequence (P21728 whole entry): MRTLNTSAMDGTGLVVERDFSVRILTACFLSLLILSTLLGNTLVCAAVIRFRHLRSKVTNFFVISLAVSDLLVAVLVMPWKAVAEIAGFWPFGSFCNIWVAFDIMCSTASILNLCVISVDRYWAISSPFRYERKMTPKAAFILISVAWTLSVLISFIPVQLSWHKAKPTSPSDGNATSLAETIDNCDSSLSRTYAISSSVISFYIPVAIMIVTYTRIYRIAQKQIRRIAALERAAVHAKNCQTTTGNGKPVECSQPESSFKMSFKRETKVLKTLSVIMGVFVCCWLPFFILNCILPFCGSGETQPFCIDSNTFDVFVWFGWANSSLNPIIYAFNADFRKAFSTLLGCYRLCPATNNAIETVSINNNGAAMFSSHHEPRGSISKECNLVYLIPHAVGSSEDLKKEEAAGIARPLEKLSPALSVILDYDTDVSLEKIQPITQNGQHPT
T4 sequence (P35367 whole entry): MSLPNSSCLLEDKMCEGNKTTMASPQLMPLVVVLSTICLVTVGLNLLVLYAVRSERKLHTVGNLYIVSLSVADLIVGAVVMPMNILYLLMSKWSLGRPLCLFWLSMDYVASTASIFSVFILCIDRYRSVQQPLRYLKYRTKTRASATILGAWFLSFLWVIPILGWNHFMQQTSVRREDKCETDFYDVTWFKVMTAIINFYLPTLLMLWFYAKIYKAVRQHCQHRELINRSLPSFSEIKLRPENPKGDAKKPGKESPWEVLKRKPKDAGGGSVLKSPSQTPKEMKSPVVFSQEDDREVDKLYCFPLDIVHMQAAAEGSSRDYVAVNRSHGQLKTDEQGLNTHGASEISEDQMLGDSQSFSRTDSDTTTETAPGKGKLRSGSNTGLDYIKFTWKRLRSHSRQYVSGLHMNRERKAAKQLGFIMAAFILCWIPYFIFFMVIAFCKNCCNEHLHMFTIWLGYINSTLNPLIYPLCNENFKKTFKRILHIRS
T19 sequence (P23975 whole entry): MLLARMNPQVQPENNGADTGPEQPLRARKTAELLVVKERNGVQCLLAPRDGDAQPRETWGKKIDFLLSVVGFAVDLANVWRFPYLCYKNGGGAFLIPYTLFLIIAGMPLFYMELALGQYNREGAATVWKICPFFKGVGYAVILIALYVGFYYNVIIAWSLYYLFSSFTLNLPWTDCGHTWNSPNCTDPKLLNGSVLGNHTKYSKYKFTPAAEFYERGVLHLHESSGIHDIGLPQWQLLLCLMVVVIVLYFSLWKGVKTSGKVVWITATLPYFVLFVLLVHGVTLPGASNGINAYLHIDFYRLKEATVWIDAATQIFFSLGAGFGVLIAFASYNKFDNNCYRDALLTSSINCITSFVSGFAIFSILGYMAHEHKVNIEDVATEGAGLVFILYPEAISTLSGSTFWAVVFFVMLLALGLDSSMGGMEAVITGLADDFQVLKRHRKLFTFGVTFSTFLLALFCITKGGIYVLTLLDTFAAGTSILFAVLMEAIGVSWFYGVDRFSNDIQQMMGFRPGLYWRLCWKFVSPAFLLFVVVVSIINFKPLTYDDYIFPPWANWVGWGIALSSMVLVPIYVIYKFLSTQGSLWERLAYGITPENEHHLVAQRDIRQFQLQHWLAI
T16 sequence (P07550 whole entry): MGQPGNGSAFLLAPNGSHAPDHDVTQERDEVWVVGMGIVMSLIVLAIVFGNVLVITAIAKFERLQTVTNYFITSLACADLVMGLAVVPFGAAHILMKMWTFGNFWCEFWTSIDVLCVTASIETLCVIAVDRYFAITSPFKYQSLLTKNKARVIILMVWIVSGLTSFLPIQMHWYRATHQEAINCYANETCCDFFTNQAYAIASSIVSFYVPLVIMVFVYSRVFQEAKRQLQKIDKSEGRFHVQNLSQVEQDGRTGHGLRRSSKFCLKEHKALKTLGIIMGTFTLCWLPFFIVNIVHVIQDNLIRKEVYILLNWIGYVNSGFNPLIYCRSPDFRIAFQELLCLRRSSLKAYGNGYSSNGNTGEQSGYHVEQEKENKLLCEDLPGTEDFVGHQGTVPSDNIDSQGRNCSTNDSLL
T10 sequence (P14416 1-414 isoform P14416-2): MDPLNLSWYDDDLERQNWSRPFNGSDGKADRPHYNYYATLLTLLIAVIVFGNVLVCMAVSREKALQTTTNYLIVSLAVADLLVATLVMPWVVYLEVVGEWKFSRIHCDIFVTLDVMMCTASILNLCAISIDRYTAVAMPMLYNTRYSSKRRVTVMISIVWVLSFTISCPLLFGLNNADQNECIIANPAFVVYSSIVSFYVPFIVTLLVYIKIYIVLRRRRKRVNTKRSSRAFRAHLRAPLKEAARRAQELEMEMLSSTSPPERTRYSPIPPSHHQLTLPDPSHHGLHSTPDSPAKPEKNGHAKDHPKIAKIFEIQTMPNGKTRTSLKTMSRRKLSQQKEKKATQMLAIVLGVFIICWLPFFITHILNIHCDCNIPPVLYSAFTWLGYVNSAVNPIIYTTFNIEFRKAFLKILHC
T8 sequence (P15823 whole entry): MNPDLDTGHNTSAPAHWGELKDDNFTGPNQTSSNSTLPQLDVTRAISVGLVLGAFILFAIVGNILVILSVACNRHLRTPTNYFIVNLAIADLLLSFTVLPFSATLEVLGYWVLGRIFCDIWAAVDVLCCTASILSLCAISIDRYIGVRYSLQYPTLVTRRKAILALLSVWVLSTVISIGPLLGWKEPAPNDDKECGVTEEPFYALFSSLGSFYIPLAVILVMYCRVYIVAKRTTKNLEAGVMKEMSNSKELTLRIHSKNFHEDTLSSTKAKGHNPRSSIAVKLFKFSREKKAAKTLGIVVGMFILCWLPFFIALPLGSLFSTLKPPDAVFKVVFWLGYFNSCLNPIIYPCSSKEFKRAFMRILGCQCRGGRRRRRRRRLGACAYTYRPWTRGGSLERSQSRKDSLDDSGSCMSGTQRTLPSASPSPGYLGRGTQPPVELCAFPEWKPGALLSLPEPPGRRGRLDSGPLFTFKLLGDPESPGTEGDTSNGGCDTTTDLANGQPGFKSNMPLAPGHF
T7 sequence (Q99720 whole entry): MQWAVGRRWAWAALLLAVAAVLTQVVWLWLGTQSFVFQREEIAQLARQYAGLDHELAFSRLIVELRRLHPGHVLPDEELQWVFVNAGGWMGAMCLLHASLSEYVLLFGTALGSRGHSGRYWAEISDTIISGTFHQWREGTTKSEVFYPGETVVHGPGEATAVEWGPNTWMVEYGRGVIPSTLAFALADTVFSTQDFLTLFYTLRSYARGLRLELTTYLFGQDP
T9 sequence (P35462 whole entry): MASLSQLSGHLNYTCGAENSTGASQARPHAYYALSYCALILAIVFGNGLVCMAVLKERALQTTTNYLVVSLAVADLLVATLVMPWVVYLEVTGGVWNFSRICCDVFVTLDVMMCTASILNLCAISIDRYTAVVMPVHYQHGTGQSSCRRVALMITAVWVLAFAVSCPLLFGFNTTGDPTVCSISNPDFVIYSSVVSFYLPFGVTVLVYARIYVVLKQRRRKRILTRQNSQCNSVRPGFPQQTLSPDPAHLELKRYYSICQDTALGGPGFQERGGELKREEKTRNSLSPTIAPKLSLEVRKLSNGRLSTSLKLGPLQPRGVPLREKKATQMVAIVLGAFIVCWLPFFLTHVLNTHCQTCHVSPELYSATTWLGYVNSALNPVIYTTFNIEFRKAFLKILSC
T12 sequence (P28222 whole entry): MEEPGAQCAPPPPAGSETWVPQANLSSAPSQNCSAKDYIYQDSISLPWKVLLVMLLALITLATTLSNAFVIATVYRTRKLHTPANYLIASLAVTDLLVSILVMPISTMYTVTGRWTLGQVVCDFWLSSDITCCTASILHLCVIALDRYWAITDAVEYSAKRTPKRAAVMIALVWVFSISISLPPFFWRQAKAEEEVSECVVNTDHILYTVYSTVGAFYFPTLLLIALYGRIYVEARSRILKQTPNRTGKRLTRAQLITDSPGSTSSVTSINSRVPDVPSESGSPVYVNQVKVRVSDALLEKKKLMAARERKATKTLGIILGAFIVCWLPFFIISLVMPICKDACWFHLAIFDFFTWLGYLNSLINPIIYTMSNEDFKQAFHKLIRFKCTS
T6 sequence (Q5U3Y7 whole entry): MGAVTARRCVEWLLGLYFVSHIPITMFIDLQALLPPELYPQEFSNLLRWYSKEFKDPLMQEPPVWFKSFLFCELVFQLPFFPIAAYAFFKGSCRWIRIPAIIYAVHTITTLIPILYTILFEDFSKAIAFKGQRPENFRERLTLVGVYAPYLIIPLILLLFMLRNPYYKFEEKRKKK
T18 sequence (P43140 whole entry): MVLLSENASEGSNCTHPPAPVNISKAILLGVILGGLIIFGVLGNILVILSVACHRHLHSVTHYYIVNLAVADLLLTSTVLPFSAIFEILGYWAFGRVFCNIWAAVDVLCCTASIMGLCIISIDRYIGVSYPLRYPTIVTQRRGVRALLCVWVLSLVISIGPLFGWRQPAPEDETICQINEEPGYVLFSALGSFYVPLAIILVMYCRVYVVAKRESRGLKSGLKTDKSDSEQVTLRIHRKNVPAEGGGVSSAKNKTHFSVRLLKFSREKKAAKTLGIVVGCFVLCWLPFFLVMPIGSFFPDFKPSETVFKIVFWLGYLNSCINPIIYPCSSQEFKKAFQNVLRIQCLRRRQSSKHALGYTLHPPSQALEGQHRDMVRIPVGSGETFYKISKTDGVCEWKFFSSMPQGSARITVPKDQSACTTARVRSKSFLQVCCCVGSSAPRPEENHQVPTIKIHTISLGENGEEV
T3 sequence (P25021 whole entry): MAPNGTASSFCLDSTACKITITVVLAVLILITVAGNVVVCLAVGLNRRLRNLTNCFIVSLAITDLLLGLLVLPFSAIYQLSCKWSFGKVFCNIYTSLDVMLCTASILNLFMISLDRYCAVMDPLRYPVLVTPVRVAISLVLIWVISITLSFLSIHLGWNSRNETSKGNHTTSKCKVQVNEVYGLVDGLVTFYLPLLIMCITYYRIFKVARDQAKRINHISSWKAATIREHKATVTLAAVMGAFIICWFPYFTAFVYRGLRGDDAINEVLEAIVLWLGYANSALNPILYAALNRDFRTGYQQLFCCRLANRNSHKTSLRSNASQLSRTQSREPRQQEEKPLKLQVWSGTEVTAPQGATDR

SMILES: CN1CCc2c(c3ccccc3n2Cc2ccccc2)C1 [formula 1, 3-methyl-9-benzyl-1,2,3,4-tetrahydrocarboline naphthalene-1,5-disulfonate]
- % of radioactive-labeled ligand replacement (adrenergic α2A): 100%
- % of radioactive-labeled ligand replacement (serotonin 5-HT6): 79%
- % of radioactive-labeled ligand replacement (sodium channel, site 2): 93%
- % of radioactive-labeled ligand replacement (histamine H2): 97%
- % of radioactive-labeled ligand replacement (histamine H1): 97%
- % of radioactive-labeled ligand replacement (serotonin 5-HT7): 76%
- % of radioactive-labeled ligand replacement (sigma σ2): 52%
- % of radioactive-labeled ligand replacement (sigma σ1): 75%
- % of radioactive-labeled ligand replacement (adrenergic α1B): 70%
- % of radioactive-labeled ligand replacement (dopamine D3): 80%
- % of radioactive-labeled ligand replacement (dopamine D2S): 60%
- % of radioactive-labeled ligand replacement (serotonin 5-HT2B): 52%
- % of radioactive-labeled ligand replacement (serotonin 5-HT1B): 64* %
- % of radioactive-labeled ligand replacement (dopamine D2L): 51%
- anxiolytic (tranquilizing) action (male mice of BALB/c line): anxiolytic (tranquilizing) activity comparable with the activity of Buspirone and Lorazepam
- % of radioactive-labeled ligand replacement [1]: 65%
- % of radioactive-labeled ligand replacement [2]: 99%
- % of radioactive-labeled ligand replacement (serotonin 5-HT2C): 79%
- % of radioactive-labeled ligand replacement (adrenergic β2): 76%
- % of radioactive-labeled ligand replacement (dopamine D1): 62%
- % of radioactive-labeled ligand replacement (adrenergic α1A): 70%
- % of radioactive-labeled ligand replacement [3]: 67%
